Measurements: paper PMC8067314, “Uptake of Vitamins D2, D3, D4, D5, D6, and D7 Solubilized in Mixed Micelles by Human Intestinal Cells, Caco-2, an Enhancing Effect of Lysophosphatidylcholine on the Cellular Uptake, and Estimation of Vitamins D’ Biological Activities” (Nutrients, 2021)
Like-named read-outs stand apart in the source and are kept apart here.

How the values were obtained:
[1] = system: differentiated Caco-2 cells; experiment: Uptake of vitamin D solubilized in mixed micelles by differentiated Caco-2 cells; format: in vitro ADME, human; details: 2 h; for Vitamin D uptake by differentiated Caco-2 cells: vitamin D 1 μM, compared among vitamins D2–D7
Description: Caco-2 cells were purchased from the American Type Culture Collection (Rockville, MD, USA). DMEM containing 10% FBS, 4 mM L-glutamine, penicillin and streptomycin (40 units/mL and 40 μg/mL, respectively), and nonessential amino acids (0.1 mM) were used as the culture medium. The cells were grown in the culture medium at 37 °C in a humidified atmosphere of 5% CO2 in air and then were cultured by passaging two times per week. We used differentiated Caco-2 cells, which have been widely used as a human intestinal model, for vitamin D uptake experiments. To induce differentiation of Caco-2 cells, the cells were seeded in culture plate of 24-well at a density of 5 × 10^4 cells per well containing 0.5 mL of the culture medium. Then, the medium was changed with fresh medium two times per week for 20–22 d. We have previously reported that the cell monolayers obtained by this method had sufficient cell-cell adhesion.
The mixed micelles were prepared as described in our previous reports. All of the components, i.e., taurocholate, monoolein, oleic acid, lysophosphatidylcholine, and vitamin D, were dissolved in an appropriate solvent. Portions of these solvent solutions were moved to glass tubes. The solvent was dried up with argon gas and further centrifugal evaporator. The dry matter was dispersed into FBS-free DMEM (same as the culture medium described above but without FBS). To remove any vitamin D not solubilized in the micelles, the resulting solution was passed through a filter (the pore size was 0.2-μm). The materials of mixed micelle and their concentrations were taurocholate (2 mM), monoolein (100 μM), oleic acid (33 μM), lysophosphatidylcholine (0 or 50 μM), and vitamin D (1 μM), respectively, unless otherwise stated. The concentrations were same as those used in our previous study. […] One part of the mixed micelles was diluted with four parts of methylene chloride/methyl alcohol (1:4, v/v), and then a portion (30 μL) was analyzed by high-pressure liquid chromatography (HPLC) as explained in the “2.8. […]

dispersed Caco-2 cells = experiment: Uptake of vitamin D from mixed micelles by dispersed Caco-2 cells; format: in vitro ADME, human; details: NoPC mixed micelles, 2 h, cells dispersed with trypsin; compared among vitamins D2–D7
From the text: Since 2001, we have reported that lysophospholipids enhance the uptake of micellar carotenoids in Caco-2 cells. […] In the present study, using the same method, we examined whether the mechanism for the enhancing effect of lysophosphatidylcholine could be adapted to vitamin D, as well. To evaluate the impact of the degree of cell-cell adhesion/cell-matrix adhesion on vitamin D uptake by cells, we prepared in two different ways: i) dispersed Caco-2 cells without cell-cell adhesion/cell-matrix adhesion and ii) Caco-2 cells with insufficient cell-cell adhesion.
(i): The dispersed cells were prepared by trypsin treatment. After collecting the cells in the culture medium, the number of cells was counted and diluted with the medium. The cells were washed two times with FBS-free DMEM and then seeded in culture plate of 24-well for suspension cultures (SC plate; Greiner Bio-One, Frickenhausen, Germany) at a density of 15 × 10^4 cells per well containing the FBS-free DMEM (0.5 mL).
Subsequent operations are common to the two models of cells. The medium consisting of mixed micellar vitamin D (0.5 mL) was added to adhered cells or dispersed cells in individual wells containing FBS-free DMEM (0.5 mL), resulting in a total medium volume of 1.0 mL/well, and the final start concentrations of mixed micellar components were one-half the initial concentration. The cells were incubated in the same conditions as described above, i.e., in a CO2 incubator at 37 °C for 2 h, and then the cells were washed with 2 mM taurocholate/PBS, followed by two times with PBS. The vitamin D uptake and residual mixed micellar vitamin D were evaluated as the previous subsection, but the filtrate of residual mixed micellar vitamin D was diluted with a 2x-volume of H2O. The cellular protein content was also determined as above.

rats = details: cited from earlier work
[2] = molecular target: T1, Niemann-Pick C1-like 1 (NPC1L1) (Homo sapiens, UniProt Q9UHC9); experiment: Inhibitory effect of ezetimibe on vitamin D uptake by differentiated Caco-2 cells (facilitated diffusion); format: in vitro ADME; details: 150 μM ezetimibe pretreatment 2 h
T1 construct: host or cells: differentiated Caco-2 cells
T1 sequence (Q9UHC9 22-1359): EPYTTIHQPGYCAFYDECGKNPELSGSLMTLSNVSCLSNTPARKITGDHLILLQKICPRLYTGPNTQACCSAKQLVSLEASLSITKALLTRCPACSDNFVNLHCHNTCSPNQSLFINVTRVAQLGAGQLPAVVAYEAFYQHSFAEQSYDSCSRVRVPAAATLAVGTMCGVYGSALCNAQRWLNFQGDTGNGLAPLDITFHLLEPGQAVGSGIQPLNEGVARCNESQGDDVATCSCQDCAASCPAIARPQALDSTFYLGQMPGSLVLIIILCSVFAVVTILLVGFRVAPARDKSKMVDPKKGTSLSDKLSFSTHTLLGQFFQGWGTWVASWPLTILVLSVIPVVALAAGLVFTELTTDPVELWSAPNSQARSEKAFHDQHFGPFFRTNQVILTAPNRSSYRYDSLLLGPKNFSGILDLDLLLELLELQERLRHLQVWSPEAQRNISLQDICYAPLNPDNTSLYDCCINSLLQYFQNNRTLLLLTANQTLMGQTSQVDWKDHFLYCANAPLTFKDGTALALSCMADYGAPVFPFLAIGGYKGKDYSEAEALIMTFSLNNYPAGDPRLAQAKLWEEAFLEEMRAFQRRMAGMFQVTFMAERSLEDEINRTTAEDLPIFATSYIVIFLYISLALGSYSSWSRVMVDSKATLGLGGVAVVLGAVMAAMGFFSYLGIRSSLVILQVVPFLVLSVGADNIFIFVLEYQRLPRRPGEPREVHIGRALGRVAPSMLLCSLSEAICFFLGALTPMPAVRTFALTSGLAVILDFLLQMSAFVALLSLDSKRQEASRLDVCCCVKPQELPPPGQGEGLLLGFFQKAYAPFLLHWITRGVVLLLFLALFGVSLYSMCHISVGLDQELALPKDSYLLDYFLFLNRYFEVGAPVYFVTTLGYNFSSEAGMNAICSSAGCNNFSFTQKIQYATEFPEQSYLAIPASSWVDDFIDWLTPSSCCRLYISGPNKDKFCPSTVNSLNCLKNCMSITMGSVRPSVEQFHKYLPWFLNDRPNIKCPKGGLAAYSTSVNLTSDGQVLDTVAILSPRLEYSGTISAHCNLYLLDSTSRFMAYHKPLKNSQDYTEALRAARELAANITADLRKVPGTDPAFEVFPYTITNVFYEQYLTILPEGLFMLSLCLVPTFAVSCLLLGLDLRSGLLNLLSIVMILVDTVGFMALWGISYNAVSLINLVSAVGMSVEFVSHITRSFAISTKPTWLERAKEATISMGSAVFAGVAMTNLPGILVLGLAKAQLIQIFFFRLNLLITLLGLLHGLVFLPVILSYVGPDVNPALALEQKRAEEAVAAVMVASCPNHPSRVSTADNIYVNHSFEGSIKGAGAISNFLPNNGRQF
Description: In the present study, we evaluated the involvement of facilitated diffusion in the cellular uptake of each mixed micellar vitamin D2–D7 by using ezetimibe, an inhibitor of the protein Niemann-Pick C1-like 1 (NPC1L1). Ezetimibe was dissolved in dimethyl sulfoxide (DMSO), and then was added at a final concentration of 150 μM to the culture medium. At this time, the final concentration of DMSO was 1.5% (v/v). The differentiated Caco-2 cells were preincubated at 37 °C for 2 h with ezetimibe-containing culture medium (0.5 mL). The cells were washed two times with FBS-free DMEM (0.5 mL) and then treated with the medium containing mixed micellar vitamin D (0.5 mL) for 2 h, as described above. After treatment, cellular vitamin D, residual mixed micellar vitamin D, and the cellular protein content were evaluated as described in the previous subsection.

[3] = system: differentiated Caco-2 cells; experiment: Cellular cholesterol in differentiated Caco-2 cells treated with mixed micelles containing lysophosphatidylcholine; format: cell-based, human; details: 2 h, no vitamin D
Description: The saponification reaction was performed as follows. A portion (0.8 mL) of the cell homogenate was mixed with 200 μL of 40 μM β-sitosterol/ethyl alcohol as an internal standard, 85 μL of 10 M KOH, and 0.6 mL ethyl alcohol and then incubated at 60 °C for 2 h under argon gas. After cooling the reaction solution, cholesterol was extracted with ethyl acetate and n-hexane in the same manner as the extraction of vitamin D described above. The extract was additionally washed with 0.8 mL H2O before the solvent completely dried and then dissolved in 200 μL of methylene chloride/methyl alcohol/H2O (9:81:10, v/v/v). An aliquot (40 μL) was then subjected to HPLC as described in the “2.8. HPLC Analysis” subsection below. The cellular protein content was also determined as above.
Vitamin D and cholesterol were analyzed by using the HPLC system and columns which were the same as in our previous report. Mobile phase X was ethanenitrile/methyl alcohol/H2O (75:15:10, v/v/v), mobile phase Y was methyl alcohol/ethyl acetate (70:30, v/v), and mobile phase Z was methyl alcohol/isopropyl alcohol (70:30, v/v). These mobile phases contained 0.1% ammonium acetate. […] Vitamin D and cholesterol were quantified from the peak area at 265 nm and 210 nm, respectively, by using the respective calibration curve of the authentic standard.

C=C1CCC(O)C/C1=C/C=C1\CCCC2(C)C1CCC2C(C)CCC(CC)C(C)C (stereo not drawn) [Vitamin D5]
Vitamin D uptake by differentiated Caco-2 cells ([1]; NoPC mixed micelles (without lysophosphatidylcholine)): lower by vitamin D5 than by other vitamins D | Vitamin D uptake by differentiated Caco-2 cells ([1]; lysoPC mixed micelles (lysophosphatidylcholine 50 μM)): tended to be lower than that of other vitamins D | Vitamin D uptake by dispersed Caco-2 cells (dispersed Caco-2 cells): no tendency toward decreased vitamin-D5 uptake | Anti-rickets activity relative to that of vitamin D2 (rats; UV-irradiated precursors, not crystals): 1/70 | Anti-rickets activity relative to that of vitamins D2 and D3 as UV irradiation precursors (rats; UV-irradiated precursors): 1/40 | Anti-rickets activity relative to that of vitamin D3 (rats; line test, crystal): 1/180

O=C1[C@H](CC[C@H](O)c2ccc(F)cc2)[C@@H](c2ccc(O)cc2)N1c1ccc(F)cc1 [ezetimibe]
Vitamin-D3 uptake blocked by ezetimibe [2]: 20–30% | inhibition at 150 µM ([2]; relative to vehicle control, NoPC and lysoPC mixed micelles, read-out: Inhibition of the uptakes of vitamins D2–D7 by ezetimibe): ~20%

C=C1CCC(O)C/C1=C/C=C1\CCCC2(C)C1CCC2C(C)CC[C@@H](C)C(C)C (stereo partly drawn) [Vitamin D7]
Vitamin D uptake by dispersed Caco-2 cells (dispersed Caco-2 cells): higher than those of vitamins D2 and D3 | Anti-rickets activity relative to that of vitamin D2 (rats; UV-irradiated precursors): 1/10

C=C1CCC(O)C/C1=C/C=C1\CCCC2(C)C1CCC2C(C)/C=C/C(CC)C(C)C (stereo not drawn) [Vitamin D6]
Vitamin D uptake by dispersed Caco-2 cells (dispersed Caco-2 cells): higher than those of vitamins D2 and D3 | Anti-rickets activity (rats; UV-irradiated precursors): little or no activity

C=C1CC[C@H](O)C/C1=C/C=C1\CCC[C@]2(C)[C@@H]([C@H](C)CCCC(C)C)CC[C@@H]12 [Vitamin D3]
Anti-rickets activity, comparison of vitamins D (rats; line test, vitamins D provided as a crystal): highest activities and were similar

C=C1CCC(O)C/C1=C/C=C1\CCCC2(C)C1CCC2C(C)CC[C@H](C)C(C)C (stereo partly drawn) [Vitamin D4]
Vitamin D uptake by dispersed Caco-2 cells (dispersed Caco-2 cells): higher than those of vitamins D2 and D3 | Anti-rickets activity as percentage of that of vitamin D2 (rats; line test, crystal): 50–75%

CCCCCCCCCCCCCCCC(=O)OC[C@@H](O)COP(=O)([O-])OCC[N+](C)(C)C [lysophosphatidylcholine, 1-16:0-2-OH-sn-glycerol-3-phosphocholine]
Enhancement of vitamin D uptake by lysophosphatidylcholine compared with NoPC ([1]; differentiated Caco-2 cells, lysophosphatidylcholine 50 μM in mixed micelles, average for six vitamin D species): 2.5 times | Effect on cellular cholesterol amounts ([3]; lysophosphatidylcholine at <100 μM in mixed micelles): tended to decrease the cellular cholesterol, but the decrease was not significant | Effect on cellular cholesterol amounts ([3]; lysophosphatidylcholine at >150 μM in mixed micelles): significantly decreased the cellular cholesterol
